Reference: patent US20070281992A1, “COMBINATION OF GYRASE B INHIBITORS AND PROTEIN SYNTHESIS INHIBITORS AND USES THEREOF” (priority 2006, published 2007)
Where two headings read alike, the source gives them in different places.

Key:
Type in all cases: cell-based
[1] = system: Methicillin-Susceptible Staphylococcus aureus Isolates; test: MIC assay (NCCLS broth dilution), MSSA clinical isolates; conditions: for MIC: read-out: Minimal Inhibitory Concentration
Experimental: (§1) Antibiotics: novobiocin, tetracycline, minocycline, oxacillin, and vancomycin were all purchased from Sigma-Aldrich. Linezolid was obtained from Pfizer, Inc. Novobiocin/tetracycline and novobiocin/minocycline were tested in a 2.5:1 ratio to mimic the serum levels. (Vavra, J. J., 1967, Development of resistance to novobiocin, tetracycline, and novobiocin-tetracycline combinations in Staphylococcus aureus populations, J. Bacteriol 93(3):801). Compounds were tested across a concentration range consisting of 11 two-fold serial dilutions of test agent.
(§2) Stock solutions were prepared in sterile deionized water; novobiocin stock concentration was 1600 μg/mL and all other drugs stock solutions were prepared at 640 μg/mL. The stock solutions were allowed to sit at room temperature for one hour to auto-sterilize prior to use in the test. All compounds were in solution in water. The control agent was vancomycin hydrochloride, Sigma Chemical Lot # 015K0825.
(§3) The test organisms for the assay were 52 MSSA, 52 MRSA, 8 VISA, 7 VISE, and 3 LRSA isolates. Quality control strains included Staphylococcus aureus 0100 (ATCC 29213) and Enterococcus faecalis (ATCC 29212).
(§4) The MIC assay was performed according to published NCCLS guidelines. (National Committee for Clinical Laboratory Standards, Methods for Dilution Antimicrobial Susceptibility Tests for Bacteria that Grow Aerobically; Approved Standard-Sixth Edition, NCCLS Document M7-A6 [ISBN 1-56238-486-4], NCCLS, 940 West Valley Road, Suite 1400, Wayne, Pa. 19087-1898 USA, 2003). The test medium was Mueller Hinton II Broth for all organisms.

[2] = system: Vancomycin-intermediate Staphylococcus aureus Isolates; test: MIC assay (NCCLS broth dilution), VISA isolates; conditions: for MIC: read-out: Minimal Inhibitory Concentration
Experimental: as §1, §2, §3, §4

[3] = system: Unconfirmed Vancomycin-intermediate Staphylococcus aureus Isolates; test: MIC assay (NCCLS broth dilution), unconfirmed VISA isolates; conditions: Staphylococcus aureus; for MIC: read-out: Minimal Inhibitory Concentration
Experimental: as §1, §2, §3, §4

[4] = system: Vancomycin-intermediate Staphylococcus epidermidis Isolates; test: MIC assay (NCCLS broth dilution), VISE isolates; conditions: for MIC: read-out: Minimal Inhibitory Concentration
Experimental: as §1, §2, §3, §4

[5] = system: Unconfirmed Vancomycin-intermediate Staphylococcus epidermidis Isolates; test: MIC assay (NCCLS broth dilution), unconfirmed VISE isolates; conditions: Staphylococcus epidermidis; for MIC: read-out: Minimal Inhibitory Concentration
Experimental: as §1, §2, §3, §4

[6] = system: Linezolid-Resistant Staphylococcus aureus Isolates; test: MIC assay (NCCLS broth dilution), LRSA isolates; conditions: for MIC: read-out: Minimal Inhibitory Concentration
Experimental: as §1, §2, §3, §4

[7] = Staphylococcus aureus, 52 MSSA isolates, combinations at 2.5:1, given as NB/partner

Cc1onc(-c2ccccc2)c1C(=O)N[C@@H]1C(=O)N2[C@@H]1SC(C)(C)[C@@H]2C(=O)O [OX, oxacillin]
MIC Range ([1]; 52 MSSA isolates, Mueller Hinton II Broth, combinations at 2.5:1, given as NB/partner): .12 to .5 µg/mL
MIC ([1]; Staphylococcus aureus, MSSA isolate 133, 03MAR06): 0.12 µg/mL
MIC ([1]; Staphylococcus aureus, MSSA isolate 134, 03MAR06): 0.25 µg/mL
MIC ([1]; Staphylococcus aureus, MSSA isolate 135, 03MAR06): 0.25 µg/mL
MIC ([1]; Staphylococcus aureus, MSSA isolate 753, 22FEB06): 0.25 µg/mL
MIC ([1]; Staphylococcus aureus, MSSA isolate 754, 22FEB06): 0.25 µg/mL
MIC ([1]; Staphylococcus aureus, MSSA isolate 754, 24FEB06): 0.25 µg/mL
MIC ([1]; Staphylococcus aureus, MSSA isolate 755, 22FEB06): 0.25 µg/mL
MIC ([1]; Staphylococcus aureus, MSSA isolate 756, 03MAR06): 0.25 µg/mL
MIC ([1]; Staphylococcus aureus, MSSA isolate 779, 22FEB06): 0.12 µg/mL
MIC ([1]; Staphylococcus aureus, MSSA isolate 780, 03MAR06): 0.25 µg/mL
MIC ([1]; Staphylococcus aureus, MSSA isolate 781, 03MAR06): 0.25 µg/mL
MIC ([1]; Staphylococcus aureus, MSSA isolate 782, 22FEB06): 0.25 µg/mL
MIC ([1]; Staphylococcus aureus, MSSA isolate 783, 22FEB06): 0.25 µg/mL
MIC ([1]; Staphylococcus aureus, MSSA isolate 784, 22FEB06): 0.25 µg/mL
MIC ([1]; Staphylococcus aureus, MSSA isolate 785, 22FEB06): 0.12 µg/mL
MIC ([1]; Staphylococcus aureus, MSSA isolate 786, 22FEB06): 0.25 µg/mL
MIC ([1]; Staphylococcus aureus, MSSA isolate 787, 22FEB06): 0.25 µg/mL
MIC ([1]; Staphylococcus aureus, MSSA isolate 788, 22FEB06): 0.25 µg/mL
MIC ([1]; Staphylococcus aureus, MSSA isolate 789, 24FEB06): 0.25 µg/mL
MIC ([1]; Staphylococcus aureus, MSSA isolate 790, 24FEB06): 0.25 µg/mL
MIC ([1]; Staphylococcus aureus, MSSA isolate 791, 24FEB06): 0.25 µg/mL
MIC ([1]; Staphylococcus aureus, MSSA isolate 792, 03MAR06): 0.12 µg/mL
MIC ([1]; Staphylococcus aureus, MSSA isolate 793, 24FEB06): 0.25 µg/mL
MIC ([1]; Staphylococcus aureus, MSSA isolate 794, 24FEB06): 0.25 µg/mL
MIC ([1]; Staphylococcus aureus, MSSA isolate 994, 22FEB06): 0.25 µg/mL
MIC ([1]; Staphylococcus aureus, MSSA isolate 995, 03MAR06): 0.12 µg/mL
MIC ([1]; Staphylococcus aureus, MSSA isolate 996, 22FEB06): 0.25 µg/mL
MIC ([1]; Staphylococcus aureus, MSSA isolate 997, 22FEB06): 0.25 µg/mL
MIC ([1]; Staphylococcus aureus, MSSA isolate 998, 03MAR06): 0.12 µg/mL
MIC ([1]; Staphylococcus aureus, MSSA isolate 999, 22FEB06): 0.25 µg/mL
MIC ([1]; Staphylococcus aureus, MSSA isolate 1000, 24FEB06): 0.25 µg/mL
MIC ([1]; Staphylococcus aureus, MSSA isolate 1001, 24FEB06): 0.25 µg/mL
MIC ([1]; Staphylococcus aureus, MSSA isolate 1002, 24FEB06): 0.5 µg/mL
MIC ([1]; Staphylococcus aureus, MSSA isolate 1003, 03MAR06): 0.25 µg/mL
MIC ([1]; Staphylococcus aureus, MSSA isolate 1005, 24FEB06): 0.25 µg/mL
MIC ([1]; Staphylococcus aureus, MSSA isolate 1006, 24FEB06): 0.25 µg/mL
MIC ([1]; Staphylococcus aureus, MSSA isolate 1007, 24FEB06): 0.25 µg/mL
MIC ([1]; Staphylococcus aureus, MSSA isolate 1008, 24FEB06): 0.25 µg/mL
MIC ([1]; Staphylococcus aureus, MSSA isolate 1009, 24FEB06): 0.5 µg/mL
MIC ([1]; Staphylococcus aureus, MSSA isolate 1131, 24FEB06): 0.5 µg/mL
MIC ([1]; Staphylococcus aureus, MSSA isolate 1132, 03MAR06): 0.12 µg/mL
MIC ([1]; Staphylococcus aureus, MSSA isolate 1133, 24FEB06): 0.5 µg/mL
MIC ([1]; Staphylococcus aureus, MSSA isolate 1134, 24FEB06): 0.25 µg/mL
MIC ([1]; Staphylococcus aureus, MSSA isolate 1654, 03MAR06): 0.12 µg/mL
MIC ([1]; Staphylococcus aureus, MSSA isolate 1656, 03MAR06): 0.25 µg/mL
MIC ([1]; Staphylococcus aureus, MSSA isolate 1662, 03MAR06): 0.25 µg/mL
MIC ([1]; Staphylococcus aureus, MSSA isolate 1663, 03MAR06): 0.25 µg/mL
MIC ([1]; Staphylococcus aureus, MSSA isolate 1666, 03MAR06): 0.25 µg/mL
MIC ([1]; Staphylococcus aureus, MSSA isolate 1667, 03MAR06): 0.25 µg/mL
MIC ([1]; Staphylococcus aureus, MSSA isolate 1668, 03MAR06): 0.25 µg/mL
MIC ([1]; Staphylococcus aureus, MSSA isolate 1671, 03MAR06): 0.25 µg/mL
MIC ([1]; Staphylococcus aureus, MSSA isolate 1728, 03MAR06): 0.25 µg/mL
MIC ([1]; Staphylococcus aureus, MSSA isolate 1728, retest 09MAR06): 0.12 µg/mL
MIC50 [1, 7]: 0.25 µg/mL
MIC90 [1, 7]: 0.25 µg/mL
MIC Range ([2]; 2 VISA isolates, combinations at 2.5:1, given as NB/partner): >32 µg/mL
MIC ([2]; Staphylococcus aureus, VISA isolate 2012, 03MAR06): > 32 µg/mL
MIC ([2]; Staphylococcus aureus, VISA isolate 2018, 03MAR06): > 32 µg/mL
MIC50 ([2]; Staphylococcus aureus, 2 VISA isolates, combinations at 2.5:1, given as NB/partner): > 32 µg/mL
MIC ([3]; Unconfirmed VISA isolate 2013, 03MAR06): 4 µg/mL
MIC ([3]; Unconfirmed VISA isolate 2014, 03MAR06): > 32 µg/mL
MIC ([3]; Unconfirmed VISA isolate 2015, 03MAR06): > 32 µg/mL
MIC ([3]; Unconfirmed VISA isolate 2016, 03MAR06): 4 µg/mL
MIC ([3]; Unconfirmed VISA isolate 2017, 03MAR06): 0.25 µg/mL
MIC ([3]; Unconfirmed VISA isolate 2019, 03MAR06): > 32 µg/mL
MIC50 ([3]; 6 unconfirmed VISA isolates (vancomycin MIC 4 ug/ml), combinations at 2.5:1): 4 µg/mL
MIC Range ([4]; 4 VISE isolates, combinations at 2.5:1): 0.5 to 16 µg/mL
MIC ([4]; Staphylococcus epidermidis, VISE isolate 2020, 09MAR06): 8 µg/mL
MIC ([4]; Staphylococcus epidermidis, VISE isolate 2021, 09MAR06): 0.5 µg/mL
MIC ([4]; Staphylococcus epidermidis, VISE isolate 2022, 03MAR06): 16 µg/mL
MIC ([4]; Staphylococcus epidermidis, VISE isolate 2023, 03MAR06): 2 µg/mL
MIC50 ([4]; Staphylococcus epidermidis, 4 VISE isolates, combinations at 2.5:1): 2 µg/mL
MIC ([5]; Unconfirmed VISE isolate 2024, 09MAR06): > 32 µg/mL
MIC ([5]; Unconfirmed VISE isolate 2025, 09MAR06): 4 µg/mL
MIC ([5]; Unconfirmed VISE isolate 2026, 03MAR06): 32 µg/mL
MIC50 ([5]; 3 unconfirmed VISE isolates, combinations at 2.5:1): 32 µg/mL
MIC Range ([6]; 3 LRSA isolates, combinations at 2.5:1): >32 µg/mL
MIC ([6]; Staphylococcus aureus, LRSA isolate 1651, 24FEB06): > 32 µg/mL
MIC ([6]; Staphylococcus aureus, LRSA isolate 1652, 24FEB06): > 32 µg/mL
MIC ([6]; Staphylococcus aureus, LRSA isolate 1725, 24FEB06): > 32 µg/mL
MIC50 ([6]; Staphylococcus aureus, 3 LRSA isolates, combinations at 2.5:1): > 32 µg/mL
